Earlier results, collected in US10758506B2, “Amino acid compositions for the treatment of porcine epidemic diarrhea” (priority 2014, dated 2020).

Details: Health Phys., 106(6):734-44, 2014

Compound | active anion secretion and/or paracellular permeability
N=C(N)NCCC[C@H](N)C(=O)O [Arginine] | activate active anion secretion and/or increase paracellular permeability
C[C@H](N)C(=O)O [alanine] | activate active anion secretion and/or increase paracellular permeability
NC(=O)C[C@H](N)C(=O)O [asparagine] | activate active anion secretion and/or increase paracellular permeability
N[C@@H](CS)C(=O)O [cysteine] | activate active anion secretion and/or increase paracellular permeability
N[C@@H](CCC(=O)O)C(=O)O [glutamic acid] | activate active anion secretion and/or increase paracellular permeability
NC(=O)CC[C@H](N)C(=O)O [glutamine] | activate active anion secretion and/or increase paracellular permeability
N[C@@H](Cc1c[nH]cn1)C(=O)O [histidine] | activate active anion secretion and/or increase paracellular permeability
CC(C)C[C@H](N)C(=O)O [leucine] | activate active anion secretion and/or increase paracellular permeability
CSCC[C@H](N)C(=O)O [methionine] | activate active anion secretion and/or increase paracellular permeability
N[C@@H](Cc1ccccc1)C(=O)O [phenylalanine] | activate active anion secretion and/or increase paracellular permeability
